Measurements taken from paper PMC10094648, “Short, Lipidated Dendrimeric γ-AApeptides as New Antimicrobial Peptidomimetics” (International Journal of Molecular Sciences, 2023).
Where two headings read alike, the source gives them in different places.

Columns and labels:
[1] = tested on: Human red blood cells; assay: Hemolytic activity; conditions: HC50 over MIC against MRSA
Procedure: (§3) Human red blood cells were washed with 1 × PBS buffer, then centrifuged at 700 g for 10 min. After discarding the top clear solution, the bottom cells were diluted to obtain 5% solution using 1 × PBS buffer.
(§4) Then, 50 μL of cell solution was injected into 96-well plates. Following this, 50 μL of synthesized compounds with different concentrations from 250 to 1.95 μg/mL were added into 96-well plates. Then, the mixture was incubated for 1 h at 37 °C. After centrifuging at 3500× g rpm for 10 min, 30 μL of the supernatant was transferred into a new 96-well plate with 100 μL of 1 × PBS buffer. With the same microplate reader, the data of absorbance at 540 nm were compared. Positive control: 2% Triton-100. Calculation formula: percentage of hemolysis = [(Absorbance of sample-Absorbance of PBS)/(Absorbance of Triton-Absorbance of PBS)] × 100

[2] = tested on: E. coli (ATCC 25922); format: cell-based; conditions: ATCC 25922, 16 h
Procedure: (§1) Chemical reagents and solvents were bought from Sigma Aldrich, Oakwood, TCI, and Chem-Impex. Final products were purified with Waters Breeze 2 HPLC and lyophilized using Labconco lyophilizer. HPLC traces of the final product were collected using 5–95% acetonitrile in water with 0.1% HPLC-grade TFA for at least 40 min. The nuclear magnetic resonance (NMR) data were collected using the Agilent 600 MHz NEO instrument. High-resolution mass spectra of compounds (Table S1) were collected using an Agilent Technologies 6540 UHD accurate-mass Q-TOF LC/MS spectrometer. Antibacterial assays and mechanism of action studies were performed using a Biotec multimode microplate reader synergy H4. Six different species of bacteria were used for bacteria assay tests, such as MRSA (ATCC 33591), MRSE (RP62A), VREF (ATCC 700802), E. coli (ATCC 25922), K. pneumoniae (ATCC 13383), and P. aeruginosa (ATCC 27853).
(§2) Concisely, E. coli, K. pneumoniae, P. aeruginosa, MRSA, MRSE, and VREF were cultivated in 37 °C TSB medium for 16 h. Subsequently, 4 ml of new TSB medium was added to 100 μL of cultivated bacterial solution and incubated for another 6 h to reach the mid-log phase. Next, 96-well plates were injected with 50 μL of bacterial solution that reached mid-log phase and 50 μL of compounds with different concentrations, which ranged from 0.75–25 μg/mL. Then, the 96-wells plates were incubated for another 16 h at 37 °C. After 16 h, MICs were determined by a multimode microplate reader.

[3] = tested on: Human red blood cells; conditions: red cells of human, 1 h
Procedure: as §3, §4

[4] = tested on: MRSA (ATCC 33591); format: cell-based, methicillin-resistant Staphylococcus aureus
Procedure: as §1, §2

[5] = tested on: MRSA; assay: Drug resistance study (serial passages); format: cell-based, methicillin-resistant Staphylococcus aureus; conditions: after 14 generations
Procedure: Since the abuse of antibiotics, antibacterial drug resistance has become an increasingly serious threat. Thus, it is of great importance to assess the drug resistance of newly developed lead compounds.
The first generation of MIC data of YW-1 against MRSA and E. coli was already obtained in an MIC study. Then, the MRSA of the first generation in the well next to the last clear well was diluted to the mid-log phase, and MICs were tested at 37 °C. This step was repeated for 14 passages. The data of drug resistance for E. coli were obtained using the same method with bacterial E. coli.

[6] = tested on: E.F. (VREF, ATCC 700802); format: cell-based; conditions: ATCC 700802, 16 h
Procedure: as §1, §2

[7] = tested on: P. aeruginosa (ATCC 27853); format: cell-based; conditions: ATCC 27853, 16 h
Procedure: as §1, §2

[8] = tested on: K. pneumoniae (ATCC 13383); format: cell-based; conditions: ATCC 13383, 16 h
Procedure: as §1, §2

[9] = tested on: MRSE (RP62A); format: cell-based; conditions: 16 h
Procedure: as §1, §2

[10] = TSB medium, 16 h at 37 °C, compounds 0.75–25 μg/mL, microplate reader

CCCCCCCCCCCCCCCC(=O)N[C@@H](CO)CN(CC(N)=O)C(=O)CCN(C[C@@H](N)CCCCN)C(=O)CCN [YW-5]
Selectivity Index (HC50/MICMRSA) [1]: >41.7
MIC, Gram-Negative (−), E. coli [2]: 6 to 12.5 µg/mL
HC50 [3]: >125 µg/mL
MIC, Gram-Positive (+), MRSA ([4]; ATCC 33591, 16 h): 1.5 to 3 µg/mL

O=C(O)c1cn(C2CC2)c2cc(N3CCNCC3)c(F)cc2c1=O [ciprofloxacin, reference compound]
increase in MIC (drug resistance) [5]: about 100 fold

CCCCCCCCCCCCCCCC(=O)N[C@@H](Cc1ccc(O)cc1)CN(CC(N)=O)C(=O)CCN(C[C@@H](N)CCCCN)C(=O)CCN [YW-4]
Selectivity Index (HC50/MICMRSA) [1]: >83.3
MIC, Gram-Positive (+), E.F. [6]: 3.0 to 6.0 µg/mL
MIC, Gram-Negative (−), P.A. [7]: >25 µg/mL
MIC, Gram-Negative (−), K.P. [8]: >25 µg/mL
MIC, Gram-Negative (−), E. coli [2]: 3.0 to 6.0 µg/mL
MIC, Gram-Positive (+), MRSE [9]: 3.0 to 6.0 µg/mL
HC50 [3]: >125 µg/mL
MIC, Gram-Positive (+), MRSA [4, 10]: 0.75 to 1.5 µg/mL

CCCCCCCCCCCCCCCC(=O)N[C@@H](CCCCNC(=N)N)CN(CC(N)=O)C(=O)CCN(C[C@@H](N)CCCCN)C(=O)CCN [YW-7]
Selectivity Index (HC50/MICMRSA) [1]: >83.3
MIC, Gram-Positive (+), E.F. [6]: 3.0 to 6.0 µg/mL
MIC, Gram-Negative (−), P.A. [7]: 12.5 to 25 µg/mL
MIC, Gram-Negative (−), K.P. [8]: >25 µg/mL
MIC, Gram-Negative (−), E. coli [2]: 3.0 to 6.0 µg/mL
MIC, Gram-Positive (+), MRSE [9]: 3.0 to 6.0 µg/mL
HC50 [3]: >125 µg/mL
MIC, Gram-Positive (+), MRSA [4, 10]: 0.75 to 1.5 µg/mL

CCCCCCCCCCCCCCCC(=O)N[C@@H](Cc1ccccc1)CN(CC(N)=O)C(=O)CCN(C[C@@H](N)CCCCN)C(=O)CCN [YW-2]
Selectivity Index (HC50/MICMRSA) [1]: >41.7
MIC, Gram-Positive (+), E.F. [6]: 1.5 to 3 µg/mL
MIC, Gram-Negative (−), P.A. [7]: 12.5 to 25 µg/mL
MIC, Gram-Negative (−), K.P. [8]: 6 to 12.5 µg/mL
MIC, Gram-Negative (−), E. coli [2]: 3.0 to 6.0 µg/mL
MIC, Gram-Positive (+), MRSE [9]: 1.5 to 3 µg/mL
HC50 [3]: >125 µg/mL
MIC, Gram-Positive (+), MRSA ([4]; ATCC 33591, 16 h): 1.5 to 3 µg/mL

CCCCCCCCCCCCCCCC(=O)N[C@@H](C)CN(CC(N)=O)C(=O)CCN(C[C@@H](N)CCCCN)C(=O)CCN [YW-3]
Selectivity Index (HC50/MICMRSA) [1]: >83.3
MIC, Gram-Positive (+), E.F. [6]: 3.0 to 6.0 µg/mL
MIC, Gram-Negative (−), P.A. [7]: 6 to 12.5 µg/mL
MIC, Gram-Negative (−), K.P. [8]: >25 µg/mL
MIC, Gram-Negative (−), E. coli [2]: 3.0 to 6.0 µg/mL
MIC, Gram-Positive (+), MRSE [9]: 6 to 12.5 µg/mL
HC50 [3]: >125 µg/mL
MIC, Gram-Positive (+), MRSA [4, 10]: 0.75 to 1.5 µg/mL

CCCCCCCCCCCCCCCC(=O)N[C@@H](CCCCN)CN(CC(N)=O)C(=O)CCN(C[C@@H](N)CCCCN)C(=O)CCN [YW-6]
Selectivity Index (HC50/MICMRSA) [1]: >83.3
MIC, Gram-Negative (−), E. coli [2]: 6 to 12.5 µg/mL
HC50 [3]: >125 µg/mL
MIC, Gram-Positive (+), MRSA [4, 10]: 0.75 to 1.5 µg/mL
